The target of the assay is T1, BtMan2A (Bacteroides thetaiotaomicron, UniProt Q8AAK6).
T1 construct: made in house; donated by Dr. W. Offen, University of York
Kind of assay: 4-MU activity assay for bacterial GH2 β-mannosidase, purified enzyme. The format is biochemical. The protocol:
Trans-Cyclosulfamidate Cyclitols Males et al.
2.3 GH38 α-mannosidases and GH2 β-mannosidase inhibition studies
All chemicals were of analytical grade and purchased from Sigma-Aldrich unless stated otherwise.
Optimal stability of cell homogenates and enzyme working stocks was ensured by preparation and temporary storage on ice. Cell homogenates were prepared and used on the same day. Protein concentrations were quantified using the Pierce BCA Protein Assay Kit (ThermoFisher). Protein samples were measured in clear flat-bottom polystyrene 96 well microplates (Greiner Bio-One) using a EMax Plus Microplate Reader (Molecular Devices). Activity measurements of human GH38 α-mannosidases and bacterial β-mannosidase BtMan2A were performed in black flat-bottom polystyrene 96 wells microplates (Greiner Bio-One) and total fluorescence was measured using a Perkin Elmer LS-55 fluorescence spectrometer at wavelengths λex = 366 and λem = 445 nm, with the signal optimized for medium gain readings. The fluorescence values of each enzyme sample were corrected for the background signal of a blank sample containing no enzyme. In the case of IC50 determinations, values were normalized against a control sample containing enzyme without added inhibitor. […]

T1 sequence (Q8AAK6 entry or part of it, change not shown): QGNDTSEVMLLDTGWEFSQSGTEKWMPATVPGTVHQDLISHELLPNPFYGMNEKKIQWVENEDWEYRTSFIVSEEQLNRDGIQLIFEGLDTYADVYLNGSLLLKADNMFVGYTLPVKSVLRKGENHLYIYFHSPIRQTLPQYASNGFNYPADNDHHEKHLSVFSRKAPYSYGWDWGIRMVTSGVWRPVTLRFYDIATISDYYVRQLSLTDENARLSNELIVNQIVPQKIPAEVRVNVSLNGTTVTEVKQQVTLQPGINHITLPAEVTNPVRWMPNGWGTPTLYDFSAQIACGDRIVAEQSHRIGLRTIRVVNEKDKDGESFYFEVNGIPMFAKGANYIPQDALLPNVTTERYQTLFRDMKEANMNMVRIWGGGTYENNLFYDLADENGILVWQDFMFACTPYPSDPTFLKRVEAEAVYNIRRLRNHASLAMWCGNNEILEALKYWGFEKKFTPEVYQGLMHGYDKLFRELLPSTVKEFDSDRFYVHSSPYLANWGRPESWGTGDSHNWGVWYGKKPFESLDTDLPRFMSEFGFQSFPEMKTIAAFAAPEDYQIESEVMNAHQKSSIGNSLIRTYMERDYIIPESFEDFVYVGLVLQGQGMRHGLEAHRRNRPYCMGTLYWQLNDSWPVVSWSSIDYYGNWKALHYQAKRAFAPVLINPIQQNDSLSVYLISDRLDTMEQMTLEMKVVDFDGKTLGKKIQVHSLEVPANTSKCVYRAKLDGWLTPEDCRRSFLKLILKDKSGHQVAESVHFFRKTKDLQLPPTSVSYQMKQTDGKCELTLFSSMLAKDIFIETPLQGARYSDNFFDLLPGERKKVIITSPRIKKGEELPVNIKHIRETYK

As for `O=S1(=O)N[C@@H]2[C@@H](O)[C@@H](O)[C@H](O)[C@@H](CO)[C@H]2O1` [compound 6, 1,6-trans-manno-cyclosulfamidate], the IC50 was above 1 mM.

Values taken from paper PMC10685318, “Trans-cyclosulfamidate mannose-configured cyclitol allows isoform-dependent inhibition of GH47 α-D-mannosidases through a bump–hole strategy” (Chemical Science, 2023).
